Reference: patent US11000560B2, “Oncolytic adenoviruses with mutations in immunodominant adenovirus epitopes and their use in cancer treatment” (VCN B[…], priority 2015, dated 2021)

System: human HLA-A2.1
Assay: HLA-A2.1 stabilization assay (RMA-S A2 cells)
Assay type: binding
Conditions: for reduction of HLA-A2 binding compared to unmodified counterpart: from Kd values; for HLA-A2 binding compared to unmodified counterpart: peptide 300 to 0.1 μM
Description: An HLA-A2.1 stabilization assay was used, with minor modifications from Takiguchi et al. (Takiguchi, M., Tissue Antigens. 2000 April; 55(4):296-302) (incorporated by reference herein in its entirety), to evaluate the binding affinity of mutated peptides. Murine cells expressing HLA-A2.1 (RMA-S A2 cells) were incubated for 18 h at 26° C. in order to allow for HLA-A2 surface expression in the absence of any peptide. Peptides were serially diluted 1:3 in a 96-well plate with a U shape bottom, starting with 300 μM up to 0.1 μM in 100 μl volume. 2.5e5 RMA-S A2 cells were added to each well in 100 μl volume. The mixture was incubated for 2 hours at 26° C. and then at 37° C. for 2 hours to allow unbound HLA-A2.1 to be internalized. Cells were spun for 3 minutes at 500 g and washed three times with PBS, FBS 5%, BSA 0.5%. Cells were incubated with 100 μl of the supernatant of hybridoma anti-HLA-A2.1 (PA2.1) and incubated for 30 minutes at 4° C. Cells were washed three times and then incubated with Alexa Fluor® 488 goat anti-mouse IgG (Molecular Probes®) at 1:500 dilution for 30 minutes at 4° C. Cells were washed three times and then analyzed with Gallios flow cytometer (Beckman Coulter). As a negative control, RMA-S A2 cells were incubated with a peptide having no affinity to HLA-A2.1 under the same experimental conditions. The fluorescence index was calculated using the formula: Fluorescein Index=(sample fluorescence−negative control fluorescence)/negative control fluorescence.
Using GraphPad Prism v5, Kd values were analyzed using a non-linear regression. A Kd value was obtained for each peptide that represents the binding constant in equilibrium with half of the maximum possible binding.

| Sequence | reduction of HLA-A2 binding compared to unmodified counterpart | HLA-A2 binding compared to unmodified counterpart |
| --- | --- | --- |
| GLVDCYINP [L520P] | more than 10 times |  |
| LLYANSAHS [A900S] |  | maintained the same level of binding |
| YLNHTFKKA [V721A] |  | maintained the same level of binding |
| YVLFEVFDK [V925K] | ~600 times |  |
